# Data taken from US6844365B2, “Substances for use in treating psoriasis” (Laboratoire Medidom S.A., priority 2000, dated 2005).
# System: human keratinocytes
# Experiment: Viability of keratinocytes by trypan blue exclusion
# Assay type: cell-based
# Details: increasing doses, 24 and 96 hours, except 100 and 200 μM at 96 hours
# Method: Human epidermal keratinocytes were obtained from foreskin by dispase II (5 mg/ml for 60 minutes at 37° C., Boehringer Mannheim, Germany) separation of epidermal sheets.
# The epidermis was incubated in 0.25% trypsin/0.02% EDTA for 20 minutes a 37° C. and mechanically disaggregated.
# The epidermal cell suspensions were plated (2.5×10^4/cm^2) on mytomicin C-treated 3T3-J2 cells (2.4×10^4/cm^2), ATCC, Rockville, Md., USA) and cultured in 5% CO2 humidified atmosphere in the keratinocyte growth medium: Dulbecco's modified Eagle's medium and Ham's F12 media (3:1 mixture, Biochrom KG, Berlin, Germany) containing fetal calf serum (10%, ICN Biomedicals, Aurora, Ohio), insulin ([…], Sigma, St.Louis, Mo., USA), transferrin ([…], Sigma), adenine (0.18 mM, Sigma), hydrocortisone ([…], Sigma), triiodothyronine (20 pM, Sigma), cholera toxin (0.1 nM, Sigma), epidermal growth factor (10 ng/ml, Sigma), 4 mM glutamine (Sigma), and penicillin/streptomycin (50 IU/ml, Biochrom.). […]
# Cell viability was evaluated by trypan blue exclusion.
# In order to understand the effects of diacerein on human keratinocytes, a possible alteration of vital parameters was evaluated by the trypan blue exclusion.
compound,measurement,value
"CC(=O)Oc1cccc2c1C(=O)c1c(OC(C)=O)cc(C(=O)O)cc1C2=O [diacerein, 4,5-bis(acetyloxy)-9,10-dihydro-9,10-dioxo-2-anthracene carboxylic acid]",alteration of keratinocyte viability,did not cause any significant alteration
